Where no end group is shown, it is not given here. [ ]: non-standard residue; d: D form. Nle = CCCC[C@H](N)C(=O)O
Tests used:
Format in all cases: cell-based
[1] = tested on: alveolar type II epithelial cells (T2 cells); assay: Adhesion of T2 cells to pseudomatrices dissolved in 50% ethanol and air-dried/immobilized, and competitive inhibition by free peptide; conditions: for Free GRGDSP concentration at which cell adhesion was almost completely inhibited: free peptide 0.25-4.0 mg/ml tested; for Competitive inhibition of cell adhesion by free peptide: 50% ethanol air-dried pseudomatrix, 0.25 mg/ml free AG73 or FIB-1; for Adhesion of T2 cells to pseudomatrix compared with coated FN: 0.1-1.0 μg/well, 24 hours serum-free
Protocol: 50 μl of 2-20 μg/ml MAST-GRGDSP (Gly-Arg-Gly-Asp-Ser-Pro) (SEQ ID NO: 22) and MMAC-GRGDSP (SEQ ID NO: 22) dissolved in 50% ethanol were poured into wells, and air-dried/immobilized. Next, the wells to which MAST-GRGDSP (SEQ ID NO: 22) and MMAC-GRGDSP (SEQ ID NO: 22) (0.1-1.0 μg/well) were coated were rinsed with the serum-free DMEM medium. T2 cells suspended in the medium at the concentration of 6×10^4 cells/100 μl were seeded, and cultured in a CO2 incubator at 37° C. for 24 hours. Then, the cells were fixed with methanol, stained, and measured its absorbance according to the method in Example 7. A culture wherein FN was coated as a standard material was conducted simultaneously. The cell adhesion on FN was shown as a standard (100%).
In the same manner as in Example 18, MAST-GRGDSP (SEQ ID NO: 22) was dissolved in 50% ethanol, air-dried/immobilized on wells, and T2 cells were seeded/cultured thereon. Separately, just before the cells were seeded, 0.25-4.0 mg/ml of free GRGDSP (SEQ ID NO: 22) peptide was added to the cell suspension, and the culture and the subsequent measurement of absorbance were conducted in the same manner as described above. […] Further, when the applied amount of MAST-GRGDSP (SEQ ID NO: 22) was decreased, the immobilized amount of GRGDSP (SEQ ID NO: 22) decreased, and the competitive inhibition by free GRGDSP (SEQ ID NO: 22) peptide worked more effectively.
(§1) In the same manner as in Example 18, MMAC-GRGDSP (SEQ ID NO: 22) was dissolved in 50% ethanol, air-dried/immobilized on wells, and T2 cells were seeded/cultured thereon. Separately, just before the cells were seeded, 0.25-4.0 mg/ml of free GRGDSP (SEQ ID NO: 22) peptide was added to the cell suspension, and the culture and the subsequent measurement of absorbance were conducted in the same manner as described above.
as §1, with “MBAC/MAST-AG73 and -FIB-1 were” for “MMAC-GRGDSP (SEQ ID NO: 22) was”, “0.25” for “0.25-4.0”, “AG73 or FIB-1” for “GRGDSP (SEQ ID NO: 22)”

[2] = tested on: alveolar type II epithelial cells (T2 cells); assay: Binding strength (affinity) of immobilized LN peptides to T2 cells relative to immobilized FIB-1 (mixed immobilization, free FIB-1 competition); design: key to Binding strength to T2 cells, Comprehensive evaluation: AA: extremely strongly binding/adhering; A: strongly binding/adhering; B: intermediately binding/adhering (as the same degree as FIB-1 peptide); C: more weakly binding/adhering than FIB-1 peptide
Protocol: Therefore, the amount of FIB-1 peptide was set at 0.25 mg/ml, and AG73 peptide was mixed therewith, while changing its concentration ratio, from 1/1.250 of FIB-1 in an amount which is 0.20 μg/ml, to ½ of FIB-1 in an amount which is 0.125 mg/ml, and the mixture was immobilized on a well wherein a hydrophobic binding-adsorptive polymer MMAC was coated. The amount of cell adhesion in the case where T2 cells were cultured under a serum-free condition for 1 day on the immobilized peptides is shown in FIG. 9, in comparison with the case where the culture was conducted on the immobilized FIB-1, which was set at 100%.
However, in a case that the ratio of FIB-1:AG73 increased to 1:0.02, because T2 cells already transited to be adherent through the immobilized AG73 peptide, free FIB-1 peptide could no longer inhibit the cell adhesion. […] Likewise, with regard to A3G72 and A4G82 peptides, because the mixing ratio at the transitional midpoint=0.1, their binding strength to T2 cells is 10 times as much as that of FIB-1.
The method used in FIGS. 8 and 9 is extremely effective as a convenient method by which a relative order can be measured concerning to the binding strength (affinity) of cell adhesion peptides and the strength of cell adhesion can be considered quantitatively.
In Table 1, the classification is shown based on the results of the affinity (bonding/adhesion strength) between FIB-1 peptide containing RGD amino acid sequence of FN molecule, a binding site to integrin, and T2 cells: laminin α-chain G-domain peptides are classified into class AA, extremely strong binding/adhesion; class A, strong adhesion; class B, adhesion as the same degree as FIB-1; and class C, binding weaker than the described above.

[3] = tested on: alveolar type II epithelial cells (T2 cells); assay: Inhibition of T2 cell adhesion by free peptide different from the immobilized peptide substrate
Protocol: Results obtained by adding the free peptides different from the immobilized peptides when T2 cells were cultured on the immobilized peptide prepared according to the method in Example 7, were shown in FIG. 8.
When adding the free peptides that were the same as the immobilized peptides in the culture medium, the both (free and immobilized) peptides compete for syndecan of T2 cells and as a result, the cell adhesion is inhibited (see Example 7). So far, four types of syndecans are genetically known. Whether these syndecans are commonly owned or accommodated by each peptide, overlapping only by some degrees, otherwise mutually exclusive, was examined herein.

[4] = tested on: alveolar type II epithelial cells (T2 cells); assay: Inhibition by free cell adhesion peptides of T2 cell adhesion to coated cell adhesion proteins FN, Col I, LN, VN; conditions: free peptide 0.25 mg/ml; serum-free, 1 day
Protocol: Commercially available FN, LN and VN, usually used as cell adhesion proteins at cell culture, were coated to wells at the concentrations of 5 μg/ml, 10 μg/ml and 10 μg/ml, respectively. In case of Col I (collagen type I), Col I at the concentration of 100 μg/ml, dissolved in 1 mM HCl, was poured into a well, left stand still for a while, and then the solution was removed and air-drying was conducted, and rinsed with the medium, before use. Next, 6×10^5 cells/ml of alveolar type II epithelial cells (T2 cells) suspended in the serum-free DMEM medium was seeded by 100 μl each on a 96-well to which the extracellular matrix was coated, and cultured in a CO2 incubator at 37° C. for 1 day. After the culture was finished, the cells were fixed with 100 μl of methanol for 5 minutes, and stained for 30 minutes with 50 μl of 0.4% crystal violet. Excessive staining was washed with water, then the number of cells adhered to FN, Col I, LN and VN, which had been coated to the wells, was counted based on the absorbance of cytoplasm (A595).
On the other hand, among amino acid sequences of various LN molecules, the sequences that induce cell adhesion are known to be present. […] Then, the number of cells was counted in accordance with the method described above.

[5] = tested on: alveolar type II epithelial cells (T2 cells); assay: Adhesion of T2 cells to pseudomatrix adsorbed/immobilized from DMEM and competitive inhibition by free peptides; conditions: for Cell adhesion ability of immobilized pseudomatrix compared with directly coated FN: 1-10 μg/ml in DMEM, 1-day serum-free culture, excluding 1 μg/ml of MBAC-AG73; for Competitive inhibition of cell adhesion to pseudomatrix by free cell adhesion peptide: pseudomatrix 1-10 μg/ml in DMEM
Protocol: 200 mg each of hydrophobic binding-adsorptive polymer, MBAC, MAST or MMAC were dispersed into water, and 1 N NaOH solution was added little by little to dissolve them completely. 50 mg of WSC (1-ethyl-3-(3-dimethylamino propyl)carbodiimide, hydrochloride) was added to the resulting solution, and the reaction was conducted for 2 hours. Subsequently, 20 mg of peptide was added, and the reaction was continued with stirring for 2 hours at room temperature. After the reaction was finished, the reactant was subjected to dialysis with water to remove alkaline and low molecules, and then freeze-dried to prepare a pseudomatrix of interest.
Each pseudomatrix prepared in Example 13 to which cell adhesion peptide was bound (MBAC-peptide) was diluted in DMEM medium to the concentration of 1-10 μg/ml, and the resultant solution was poured into a 96-well by 100 μl each, and left still overnight in a CO2 incubator to be adsorbed and immobilized on the wells. Non-adsorbed MBAC-peptides were removed by rinsing well with DMEM medium. Next, T2 cells suspended at the concentration of 6×10^5 cells/ml were seeded in the serum-free DMEM by 100 μl each. After 1-day serum-free culture, T2 cells were fixed with 100 μl of methanol for 5 minutes, and stained with 50 μl of 0.4% crystal violet for 30 minutes. Excessive staining was washed with water, and the number of adhering cells was counted based on the absorbance of cytoplasm (A595).
In the same manner as in Example 14, each pseudomatrix prepared in Example 13 to which cell adhesion peptide was bound (MAST-peptide) was adsorbed and immobilized on a 96-well, and T2 cells were seeded and cultured thereon.

| Substance | Cell adhesion ability of immobilized pseudomatrix compared with directly coated FN [5] | Competitive inhibition of cell adhesion to pseudomatrix by free cell adhesion peptide [5] | Adhesion of T2 cells to pseudomatrix compared with coated FN ([1]; 50% ethanol, air-dried) | also measured |
| --- | --- | --- | --- | --- |
| Gly-Arg-Gly-Asp-Ser-Pro (GRGDSP) [reference compound] | – | – | – | Free GRGDSP concentration at which cell adhesion was almost completely inhibited ([1]; adhesion to MAST-GRGDSP): 4.0 mg/mL; Free GRGDSP concentration at which cell adhesion was almost completely inhibited ([1]; adhesion to MMAC-GRGDSP): 1.0 to 4.0 mg/mL |
| LVLFLNHGHFVA | – | – | – | Binding strength to T2 cells, Comprehensive evaluation ([2]; classification relative to FIB-1 peptide): B; Mixing ratio at the transitional midpoint ([2]; peptide:FIB-1 co-immobilized, FIB-1 0.25 mg/ml, loss of inhibition by free FIB-1): about 1; Inhibition by free peptide of T2 cell adhesion to immobilized AG73 ([3]; AG73 (etc.) immobilized): inhibited the cell adhesion; Inhibition by free peptide of T2 cell adhesion to immobilized FIB-1 ([3]; FIB-1 immobilized): could inhibit; Inhibition of adhesion of T2 cells to FN, Col I, LN and VN by free peptide [4]: inhibited adhesion of T2 cells |
| MAST-A3G72: pseudomatrix: MAST polymer reacted with A3G72 peptide (KPRLQFSLDIQT) | the same level of cell adhesion ability as in the case where FN was directly coated | competitively inhibited by the free cell adhesion peptide, the degree is lower than the case of MBAC-peptide | – | – |
| MAST-A4G82X: pseudomatrix: MAST polymer reacted with A4G82X peptide (TLFLAHGRLVF[Nle]; also: peptide reacted with MAST polymer (pseudomatrix)) | the same level of cell adhesion ability as in the case where FN was directly coated | inhibited by free A4G82 peptide | – | – |
| MAST-AG73: pseudomatrix: MAST polymer reacted with AG73 peptide (RKRLQVQLSIRT) | the same level of cell adhesion ability as in the case where FN was directly coated | competitively inhibited by the free cell adhesion peptide, the degree is lower than the case of MBAC-peptide | similarly to the case where FN was coated | Competitive inhibition of cell adhesion by free peptide [1]: almost completely inhibited |
| MAST-GRGDSP: pseudomatrix: MAST polymer bound to GRGDSP peptide (also: bound to MAST polymer) | – | – | slightly lower than that of the standard cell adhesion protein FN | Amount of cell adhesion compared with the same peptide bound to MMAC ([1]; 50% ethanol, air-dried, polystyrene wells): larger amount of cell adhesion than that of the same peptide bound to MMAC polymer |
| MBAC-A3G72: pseudomatrix: MBAC polymer reacted with A3G72 peptide (KPRLQFSLDIQT) | – | competitively inhibited | – | – |
| MBAC-AG73: pseudomatrix: MBAC polymer reacted with AG73 peptide (RKRLQVQLSIRT) | – | competitively inhibited | similarly to the case where FN was coated | Competitive inhibition of cell adhesion by free peptide [1]: almost completely inhibited |
| MMAC-GRGDSP: pseudomatrix: MMAC polymer bound to GRGDSP peptide (also: bound to MMAC polymer) | – | – | slightly lower than that of the standard cell adhesion protein FN | – |

From US8304238B2, “Cell culture medium and immobilized preparation of cell adhesion protein or peptide” (Nat'l Institute for Environmental Studies, priority 2003, dated 2012)
